Where two headings read alike, the source gives them in different places.
What was measured:
Akt S473 phosphorylation = assay: pS473-Akt HTRF assay; format: cell-based, Mouse; conditions: Mus musculus, N2a, Neuro 2A cells
Description: Neuro 2A cells were seeded (4,000 cells/well) in 4 µL of DMEM with 0.5% FBS and 1x Penicillin/Streptomycin in white solid bottom tissue-culture treated 1536-well plates (Greiner, 789173-F) with MultiDrop Combi Dispenser (Thermo Scientific). The cells were incubated for 24 h at 37 °C, 5% CO2, 95% humidity. Twenty-three nL of tested compounds were transferred to each well with an automated pin-tool station (Kalypsys). Following incubation for 15 min at 37 °C, 0.5 µL IGF (500 ng/mL of final concentration) was added and incubated for additional 40 min at 37 °C. After the addition of 1.5 µL 4x lysis buffer and 15-min incubation at room temperature (25 °C), 2 µL of HTRF® conjugated antibodies (fluorophore d2 conjugated anti-Akt monoclonal antibody and Europium^3+ cryptate-labeled anti-pS473-Akt monoclonal antibody, obtained from CisBio, 1:80 dilution) were added with BioRAPTR FRD™ (Beckman Coulter). The plates were incubated at room temperature for 20 h. The signal was measured by EnVision Multilabel Plate Reader (PerkinElmer) with excitation at 330 nm, emission at 620 nm (donor) and 665 nm (acceptor). Results were calculated and analyzed in a format of the ratio 665 nm/620 nm multiplied by 10^4.
Relative activity was calculated by normalizing each HTRF signal from each sample well to the mean HTRF signal from the DMSO-only control wells.
The Library of Pharmacologically Active Compounds (LOPAC, 1280 compounds) and the Molecular Library Small Molecular Repository Library (MLSMR, 373,868 compounds) were obtained from Sigma-Aldrich.
Quantitative HTS (qHTS) and curve response class classification
The qHTS screen was performed as described previously1. Each compound was titrated in seven concentrations. The final concentrations of the compounds assayed ranged from 4.9 nM to 76.6 µM. The curve response classifications (CRC), which can be used to depict potency, efficacy and reliability of the data, and to estimate an IC50 value, were determined by a customized software2. […]
Sigma-Aldrich) and the basal response (0% inhibition) was set to the DMSO control.
Efficacy of a compound refers to the highest response normalized to the maximal response of LY. The CRCs were grouped into 4 categories. Class 1 are well-fit and have both upper and lower asymptotes with efficacy greater than 30%
(Class1.1, >80% efficacy; Class 1.2; 30-80% efficacy). Class 2 are incomplete with only one asy mptote (Class 2.1, > 80% efficacy; Class 2.2, 30-80% % efficacy). Class 3 display activity only at the highest concentrations and efficacy >30%. Class 4 are with low efficacy (<30%) or no response and considered inactive3.

LNCaP cells = assay: MTS cell proliferation assay; format: cell-based; conditions: 1 day, 40% confluent
Description: (§1) Neuro 2A cells or NIH/3T3 cells (ATCC) were seeded at various confluency in a 96-well plate in 100 µL DMEM containing 5% FBS or 10% FBS with 1% penicillin streptomucin, respectively, at 37 °C in a 5% CO2 and 95% humidity incubator for 18 hr. To each well 1 µL inhibitor with various concentrations or DMSO was added. The final concentrations of the tested inhibitors were 0, 5, 10, 20, 40 and 80 µM for G7 and LY, and 0, 5, 10, 20, 40 and 80 nM for Torin1, based on their respective IC50 values (~µM for G7 and LY and ~ nM for Torin 1). After 24 hr, 20 µL of CellTiter 96® AQueous One Solution Reagent (Promega) were added. The plate was placed in the incubator for 2 h and absorbance at 490 nm was measured with a Synergy HT Microplate Reader (Bio-Tek).
Fig. S8. Effect of G7 on proliferation of LNCaP cells. Cells that were 40% confluent in RPMI-1640 medium containing 10% FBS were treated with inhibitors for 1 day and subjected to MTS assays. *, µM for both G7 and LY and nM for Torin1. Data represent means ± SEM (n=3). G7, 4-phenylquinolin-2(1H)-one, LY, LY294002.

Akt = molecular target: T1, Akt (Mus musculus, UniProt P31750); assay: Akt activity assay (immunoprecipitated Akt, K-Lisa); format: cell-based; conditions: LY at 125 µM
T1 construct: subjected to immunoprecipitation using protein G-plus and anti-AKT PH domain (Millipore); endogenous in cells; host or cells: Neuro 2A (mouse neuroblastoma), IGF-stimulated
Description: After overnight starvation by incubating with serum-free DMEM, Neuro 2A cells were treated with compound G7 at various concentrations for 30 min at room temperature followed by stimulation with IGF (final concentration of 100 ng/mL) for 30 min. Cells were lysed with lysis buffer containing 1% Triton X-100 and protease/phosphatase inhibitors (Cell Signaling Technology) and subjected to immunoprecipitation using protein G-plus and anti-AKT PH domain (Millipore). The activity of the immunopurified Akt was evaluated using a K-Lisa Akt activity kit (Millipore) in accordance with manufacturer’s instructions. The activity was normalized to Akt level in the immunoprecipitates determined by quantitative western blot analysis.

Neuro 2A cells = assay: MTS cell proliferation assay; format: cell-based, Mouse; conditions: 1 day
Description: as §1

mTORC2 = tested on: mTORC2; design: method as in PMID 22614243; conditions: cited from earlier work

T1 sequence (P31750 whole entry, the tested form may be a part): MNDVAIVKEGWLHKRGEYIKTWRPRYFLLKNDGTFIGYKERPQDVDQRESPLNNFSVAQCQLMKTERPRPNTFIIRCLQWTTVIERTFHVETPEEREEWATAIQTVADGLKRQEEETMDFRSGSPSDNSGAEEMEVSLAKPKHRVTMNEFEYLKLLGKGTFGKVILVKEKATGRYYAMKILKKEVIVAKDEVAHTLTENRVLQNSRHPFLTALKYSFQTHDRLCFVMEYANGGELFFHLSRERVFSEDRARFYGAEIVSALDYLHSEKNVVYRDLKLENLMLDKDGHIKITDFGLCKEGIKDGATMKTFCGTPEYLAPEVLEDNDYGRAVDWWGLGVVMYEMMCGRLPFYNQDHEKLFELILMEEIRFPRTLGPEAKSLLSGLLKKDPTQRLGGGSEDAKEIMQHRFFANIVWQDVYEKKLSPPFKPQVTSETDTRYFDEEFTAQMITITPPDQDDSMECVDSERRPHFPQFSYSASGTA

| IC50 (Akt S473 phosphorylation; inhibitor 15 min before IGF, read-out: IC50) [µM] | inhibition at 125 µM (Akt) [%] | IC50 (Akt S473 phosphorylation; 384-well format, read-out: IC50) [µM] | IC50 (Akt S473 phosphorylation; 1536-well, inhibitor 15 min before IGF, read-out: apparent IC50) [µM] | SMILES | proliferation of LNCaP prostate cancer cells (LNCaP cells) | proliferation of Neuro 2A cells (Neuro 2A cells) | effect on mTORC2 activity (mTORC2) |
| --- | --- | --- | --- | --- | --- | --- | --- |
| 25 | ~90 | – | – | O=c1cc(N2CCOCC2)oc2c(-c3ccccc3)cccc12 [LY294002, 2-(4-morpholinyl)-8-phenyl-4H-1-benzopyran-4-one] | inhibited the proliferation | inhibited the proliferation | – |
| – | – | – | – | NC1(c2ccc(-c3nc4ccn5c(=O)[nH]nc5c4cc3-c3ccccc3)cc2)CCC1 [MK-2206] | – | – | decrease mTORC2 activity |
| – | – | 0.02 | ~0.02 | CCC(=O)N1CCN(c2ccc(-n3c(=O)ccc4cnc5ccc(-c6cnc7ccccc7c6)cc5c43)cc2C(F)(F)F)CC1 [Torin 1, 1-(4-(4-Propionylpiperazin-1-yl)-3-(trifluoromethyl)phenyl)-9-(quinolin-3-yl)benzo[h][1,6]naphthyridin-2(1H)-one] | inhibited the proliferation | inhibited the proliferation | – |

— article PMC5601486, “Identification of 4-phenylquinolin-2(1H)-one as a specific allosteric inhibitor of Akt” (Scientific Reports, 2017)
